Experimental data from patent US20260272797A1, “FRAGRANCE COMPOSITION” (GIVAUDAN SA, priority 2023, published 2026).

Tests used:
[1] = Impact of fragrance ingredients on scalp malodour counteractancy of 80 fragrance compositions (Example 2 protocol, statistical presence); settings: series of 80 fragrance compositions
[2] = Gas-phase evaluation of each fragrance ingredient alone against model scalp malodour, MiniVAS device, panel of 5 experts; settings: for Scalp MOC of ingredient alone: expert description
[3] = Table 3, air flow 50 ml/min, scale of 1-5 (1=barely noticeable, 5=very strong)
[4] = Table 4, air flow 50 ml/min, scale of 1-5

Compound	Impact on scalp MOC of fragrance composition ([1]; Table 3)	MO intensity [2, 3]	Impact on scalp MOC of fragrance composition ([1]; Table 4)	MO intensity [2, 4]	Scalp MOC of ingredient alone ([2]; Table 4, gas phase)	Scalp MOC of ingredient alone ([2]; Table 3, gas phase)
CCCCCCC#CC(=O)OC [methyl non-2-ynoate]	Positive	1.8	–	–	–	–
C=CCOC(=O)CCC1CCCCC1 [prop-2-enyl 3-cyclohexylpropanoate]	–	–	Negative	1.5	–	–
CC(C)CC1CC(C)(O)CCO1 (stereo not shown) [tetrahydro-4-methyl-2-(2-methylpropyl)-2H-pyran-4-ol]	–	–	Negative	2.2	Low coverage	–
CCCCCCCCCCC=O [undecanal]	–	–	Negative	1	Enhances MO	–
mercapto-para-menthan-3-one	Positive	1	–	–	–	No effect
